Experimental data published in patent US20210275624A1, “TREATMENTS FOR IMPROVING OR LESSENING IMPAIRMENT OF MITOCHONDRIAL FUNCTION” (priority 2020, published 2021).
Square brackets hold non-standard residues; d marks the D form. Peptide text beside a SMILES is read from it. Cya = N[C@@H](CS(=O)(=O)O)C(=O)O

Key:
Format in all cases: cell-based
[1] = system: human RPE cells; test: Flow cytometry (Annexin V / 7-AAD) cell death and light-microscopy morphology
Method: Human donor eyes from a donor were obtained within 24 hrs. after death from the North Carolina Organ Donor and Eye Bank, Inc. (Winston-Salem, N.C., USA) in accordance with the provisions of the Declaration of Helsinki for research involving human tissue. Cells were grown in Eagle's minimal essential medium (MEM; Invitrogen) with 10% fetal bovine serum (FBS; Thermo Scientific) and with 1× penicillin/streptomycin (Thermo Scientific) at 37° C. in a humidified environment containing 5% CO2.
(§1) Human donor RPE cells were seeded on collagen-coated 96-well plates, 24-well plates with or without coverslips, 6-well plates (Corning-Costar Incorporated, Corning, N.Y., USA). Except for the Seahorse assay, on day 6 after plating, cells were washed twice with serum-free and phenol red-free MEM (SF-MEM), treated with HQ at a various concentrations in the presence or absence of RSG (0.4 mM) in SF-MEM for various times at 37° C. RSG co-treatment refers to the condition in which cells were treated with RSG in the presence of HQ. Control refers to the condition in which cells were not treated.
RPE cells in triplicate wells of a 6-well plate were treated with HQ (150 μM) in the presence or absence of RSG (0.4 mM) for 12 hours. Cell morphology was recorded by light microscopy, and then cells were detached with 1×TrypLE and centrifuged at 300 g for 5 minutes. Cells were re-suspended with 100 μL 1×Annexin V binding buffer, incubated with 5 μL Annexin V for 10 minutes and then 5 μL 7-AAD was added to the Annexin V mixture and incubated for additional 5 minutes. Cell death was analyzed with flow cytometry.

[2] = system: human RPE cells; test: Determination of Δψm (JC-1 dye)
Method: as §1, with “treated. RPE cells in triplicate wells of 96-well black plates with clear bottoms were washed with SF-MEM, loaded with 10 μM JC-1 dye in SF-MEM for 30 minutes at 37° C. and then washed twice. Cells were then treated with HQ (160 μM) with or without RSG (0.4 mM). A fluorescence plate reader was used to measure the fluorescence at various times to quantify green JC-1 monomer (490-nm excitation, 522-nm emission) and red JC-1 aggregates (535-nm excitation, 590-nm emission).” for “treated.”

[3] = system: human RPE cells; test: F-actin immunofluorescent staining (phalloidin), aggregate quantification; conditions: 6 hours
Method: Human donor RPE cells were seeded on collagen-coated 96-well plates, 24-well plates with or without coverslips, 6-well plates (Corning-Costar Incorporated, Corning, N.Y., USA). Except for the Seahorse assay, on day 6 after plating, cells were washed twice with serum-free and phenol red-free MEM (SF-MEM), treated with HQ at a various concentrations in the presence or absence of RSG (0.4 mM) in SF-MEM for various times at 37° C. RSG co-treatment refers to the condition in which cells were treated with RSG in the presence of HQ. Control refers to the condition in which cells were not treated. RPE cells in triplicate wells of a 24-well plate containing collagen-coated coverslips were treated for 6 hours with HQ (140 μM) in the presence or absence of RSG (0.4 mM) and then fixed in 4% paraformaldehyde for 12 minutes at room temperature (RT). Cells were permeabilized with 0.5% Triton X-100 for 12 minutes and incubated for 1 hour at RT with phalloidin-TRITC in 0.5% bovine serum albumin/0.1% Triton X-100/PBS. The percentage of F-actin aggregates was determined by a masked observer. […] For data analysis, segmented images were converted to eight-bit, binary images and F-actin aggregates were quantified using the particle analyzer function (0-infinity size and 0-1 circularity) in Fiji.

[4] = system: human RPE cells; test: RNA-seq whole transcriptome analysis; conditions: 4 hours
Method: RPE cells in sextuplicate wells of a 6-well plate were treated for 4 hours with HQ (250 μM or 300 μM) in the presence or absence of RSG (0.4 mM). Total RNA was extracted using an RNeasy Mini Kit and DNA was removed with TURBO DNA-free kit. RNA quality was measured with a Bioanalyzer (Agilent Genomics, Santa Clara, Calif., USA). RNA-seq libraries were prepared from poly-A enriched messenger RNA and sequenced by GENEWIZ (South […], NJ, USA) to generate approximately 20-30 million paired-end, 150 base-pair reads per sample. RNA-seq FASTQ files were quality-tested with FastQC. Reads were aligned with STAR to human genome (GRCh38.p12) and transcriptome ([…]30) references, followed by read-quantification with featureCounts. Principal component analysis (PCA) was used to visualize the high-dimensional RNA-seq dataset using the top 15 thousand genes that had the highest average counts, as normalized by DESeq2's VST method. […] Enriched biological processes were condensed and visualized with […] with similarity metric set to small and GO term size determined by Uniport Homo Sapiens database; biologically relevant processes were selected and labeled. Six enriched KEGG pathways were selected for visualization of gene expression changes, based on their biological relevance and strength of negative correlation between HQ and RSG co-treatment. Empirical RNA-seq Sample Size Analysis (ERSSA) was used to check whether the six biological replicates used in this study were sufficient for differential expression discovery; analysis was performed with log 2FC cutoff of 0.25 and 50 subsamples at each replicate level.

Row | SMILES | cell morphology ([1]; HQ 150 μM) | cell death (necrosis, apoptosis) ([1]; HQ alone 150 μM, 12 hours) | Δψm ([2]; HQ 160 μM vs control) | number of F-actin aggregates ([3]; HQ 140 μM, vs control) | number of genes changed (differential expression) ([4]; HQ 250 μM or 300 μM, vs control) | HMOX-1 gene expression increase (RNA-seq) ([4]; HQ 250 μM) [%] | HMOX-1 gene expression increase (RNA-seq) ([4]; HQ 300 μM) [%] | cell morphology ([1]; RSG 0.4 mM co-treatment with HQ 150 μM) | HQ-induced necrosis and apoptosis (cell death) ([1]; RSG 0.4 mM co-treatment with HQ 150 μM, 12 hours) | number of live and dead cells ([1]; RSG alone 0.4 mM, 12 hours, vs control) | Δψm (mitochondrial membrane potential) ([2]; RSG 0.4 mM co-treatment with HQ 160 μM) | F-actin aggregates ([3]; RSG 0.4 mM co-treatment with HQ 140 μM) | HMOX-1 gene expression increase (RNA-seq) ([4]; RSG 0.4 mM co-treatment vs 250 μM HQ alone) [%] | HMOX-1 gene expression increase (RNA-seq) ([4]; RSG 0.4 mM co-treatment vs 300 μM HQ alone) [%] | genes regulated (differential expression) ([4]; RSG 0.4 mM co-treatment vs HQ alone) | number of differentially expressed (DE) genes ([4]; RSG alone 0.4 mM, vs control) [genes]
1 | Oc1ccc(O)cc1 [HQ, hydroquinone, reference compound] | caused cells to shrivel/detach | induced primarily necrotic cell death and much less apoptotic cell death | significantly decreased | significantly increased the number of F-actin aggregates | approximately seven thousand | 618 | 420 |  |  |  |  |  |  |  |  | 
2 | C[C@@H](O)[C@H](NC(=O)[C@H](CS(=O)(=O)O)NC(=O)CNC(=O)[C@H](CCCNC(=N)N)NC(=O)CN)C(=O)N1CCC[C@H]1C(=O)O [Risuteganib, Glycyl-L-arginylglycyl-3-sulfo-L-alanyl-L-threonyl-L-proline] (H-GRG[Cya]TP-OH) |  |  |  |  |  |  |  | improved HQ-induced morphological changes | significantly protected cells from HQ-induced necrosis and apoptosis | little effect | significantly improved HQ-mediated reduction in Δψm | significantly inhibited the production of HQ-induced aggregates | 241 | 391 | regulated thousands of genes | 15
